# Laboratory results reported in patent US7695933B2, “SM38 nucleic acid molecules” (priority 2000, dated 2010).
# Values joined by “and” are separate entries in the source; they are usually repeats but may differ in a detail not shown here. Identical values can stand only once. Like-named read-outs stand apart in the source and are kept apart here.
# B1: SM38: CD38 homologue from the parasitic flatworm Schistosoma mansoni (protein)
# chain: RHEVIFHNLLIQIMMNVILFLTLSNIFVFNSAQHQINLLSEIVQSRCTQWKVEHGATNISCSEIWNSFESILLSTHTKSACVMKSGLFDDFVYQLFELEQQQQQRHHTIQTEQYFHSQVMNIIRGMCKRLGVCRSLETTFPGYLFDELNWCNGSLTGNTKYGTVCGCDYKSNVVHAFWQSASAEYARRASGNIFVVLNGSVKAPFNENKTFGKIELPLLKHPRVQQLTVKLVHSLEDVNNRQTCESWSLQELANKLNSVHIPFRCIDDPLEFRHYQCIENPGKQLCQFSASTRSNVETLLILFPLVICLTFYTSMN
# B2: Aplysia cyclase: invertebrate Aplysia ADP-ribosyl cyclase enzyme (protein)
# chain: MSPVAIVACVCLAVTLTRISPSEAIFPTPELQNVFLGRCKDYEITRYLTILPRVKSDCRALWTNFFKAFSFKAPCNLDLGSYKDFFQRAQQTLPKNKVMFWSGVYDEAHDFADDGRKYITLEDTLPGYMLNSLVWCGQRDKPGFNQKVCPDFKDCPVQARESFWGTASSSYAHSAEGDVTYMVDGSNPKVPAYRPDSFFGKYELPNLTNKVTKVKVIVLHQLGQKIIERCGAGSLLDLEMVVKAKKFGFDCVENPKSVLFLLCADNPNARECQLAKRYYRIA
# modifications: A. californica
# notes: invertebrate Aplysia ADP-ribosyl cyclase enzyme
# Assays:
# SM38 = assay: Enzyme assays and kinetics with purified recombinant soluble SM38; type: biochemical, Schistosoma mansoni; conditions: for Km / Vmax (specific activity) / kcat: 37° C., 10 mM potassium phosphate buffer pH 7.4, SM38 from Pichia pastoris
# Experimental: The enzyme was incubated with NAD^+ (200 μM) in buffer A (1 ml final volume) until the reaction reached 50% completion. The enzyme was eliminated by centrifugation for 10 min at 5000×g on ultrafiltration units (Vivaspin 2, Vivascience). […] The cycling reaction was then allowed to proceed in the same buffer in the presence of 0.8% ethanol, 10 mM nicotinamide, 40 μg/ml BSA, 20 μg/ml diaphorase (treated with charcoal), 20 μg/ml alcohol dehydrogenase, 10 μM FMN and 20 μM resazurin. The increase in resorufin fluorescence (excitation at 544 nm and emission at 590 nm) was measured every minute for 2 h using a fluorescence plate reader (FluoStar from BMG Labtechnologies Inc).
# Aliquots were removed at different time points, treated as described above and analyzed by HPLC on a C18 column.
# (§1) The transglycosidation of NADP^+ was measured by incubating recombinant soluble SM38 with 1 mM NADP^+ and 20 to 40 mM nicotinic acid at 37° C. for 20 min in a 10 mM potassium phosphate buffer, pH 6.0 or 7.4 (final volume 500 μl). The reaction mixture was analyzed by HPLC on an ion-exchange column (see below). HPLC analysis of the reaction products were performed on aliquots on a C18 column (see below).
# The assays were conducted at 37° C. in buffer A in the presence of soluble recombinant enzyme using eight different substrate concentrations. […] Kinetic parameters were determined from the plots of the initial rates as a function of substrate concentration, according to Michaelis-Menten kinetics, using a non-linear regression program (GraphPad, Prism).
# bone marrow neutrophils [1] = assay: Intracellular calcium measurements by flow cytometry (Fluo-3/Fura Red); type: cell-based, mouse
# Experimental: Purified bone marrow neutrophils were resuspended in cell loading media (HBSS with Ca2^+ and Mg2^++1% FBS+4 mM probenecid) at 1×10^7 cells/ml. The cells were incubated at 37° C. for 30 min with the fluorescent dyes Fluo-3 AM (4 μg/ml) and Fura Red AM (10 μg/ml) (Molecular Probes, Eugene Oreg.) and then washed twice and resuspended in cell loading medium or calcium-free medium at 1×10^6 cells/ml. In some experiments, cells were permeabilized in 5 μM digitonin in calcium-free media. […] The accumulation of [Ca^2+]i in individual cells was assessed by flow cytometry measuring the fluorescence emission of Fluo-3 in the FL-1 channel and Fura-Red in the FL-3 channel. Data was analyzed using FlowJo 3.2 (Tree Star, Inc. San Carlos, Calif.). The relative [Ca2^+]i was expressed as the ratio between Fluo-3 and Fura Red mean fluorescence intensity over time.
# bone marrow neutrophils [2] = assay: In vitro transwell chemotaxis assay; type: cell-based, mouse; conditions: for ability of neutrophils to chemotax to IL-8: WT neutrophils pre-treated with agent, IL-8 in bottom chamber
# Experimental: Bone marrow neutrophils were purified (95% purity) by positive selection using biotinylated GR-1 (PharMingen) and MACS Streptavidin Microbeads (Miltenyi Biotec, Auburn Calif.). Chemotaxis assays (Falk et al., 1980 J. Immuno. Methods 33:239-247) were performed using 24-well transwell plates with a 3 μm pore size polycarbonate filter (Costar, Cambridge, Mass.). Medium (HBSS+Ca2^++Mg2^+), fMLP (1 μM, Sigma, St. Louis, Mo.), or IL-8 (100 nM, Sigma) was placed in the lower and/or upper chamber in a checkerboard format. 1×10^5 neutrophils were loaded in the upper chamber and the plates were incubated at 37° C. for 45 min. The transmigrated cells were collected from the lower chamber, fixed and counted on the flow cytometer (FACS Calibur, Becton Dickinson, San Jose Calif.). To determine the absolute number of cells in each sample, a standard number of […] size fluorescent microspheres (Polysciences, Inc. Warrington, Pa.) was added to each tube and counted along with the cells. The total number of transmigrated cells=the number of counted neutrophils×total number of beads/beads counted. […]
# Mammalian cyclases = conditions: cited from earlier work
# Aplysia cyclase = Aplysia cyclase (Aplysia californica, UniProt P29241); conditions: cited from earlier work
# [3] = system: membrane-associated NAD^+ glycohydrolase/NGD^+ cyclase expressed by adult S. mansoni worms; assay: NAD+ glycohydrolase / NGD+ cyclase activity of adult worm membrane microsomes
# Experimental: The enzyme was suspended in 10 mM potassium phosphate buffer, pH 7.4 (buffer A) and incubated at 37° C. with substrate (200 μl final volume). At selected times, aliquots (50 μl) were removed and enzyme activity was stopped by adding ice-cold perchloric acid (2% final concentration). After neutralization with 3.5 M K2CO3, precipitated proteins were removed by centrifugation. Product formation was then monitored by HPLC as described below. […] Product formation was then monitored by HPLC on a C18 column as described below.
# Product analysis was performed by HPLC on 300×3.9 mm μBondapack C18 column (Waters Assoc., Milford Mass.). […] The elution was performed at a flow rate of 1 ml/min with a non-linear gradient starting with 100% solvent A (water). […] Peaks were identified by comparison with authentic samples and areas obtained from UV recordings were normalized using the molar extinction coefficients of the reaction products.
# To prepare membrane fractions from adult S. mansoni worms, 2 g of worms were disrupted at 4° C. with a potter in 10 mM potassium phosphate buffer (pH 7.4) containing 1 mM EDTA and 0.1 mM phenylmethylsulfonyl fluoride (PMSF) as protease inhibitors. The homogenate was centrifuged at 10,000×g for 15 min and the post-mitochondrial supernatant was centrifuged at 100,000×g for 60 min to obtain the membrane microsomal fraction. […]
# [4] = Transglycosidation (pyridine base exchange) by cyclase family enzymes; type: biochemical; conditions: SM38
# Experimental: as §1
# [5] = other cyclase family members; cited from earlier work
# Sequence of Aplysia cyclase (P29241 25-282): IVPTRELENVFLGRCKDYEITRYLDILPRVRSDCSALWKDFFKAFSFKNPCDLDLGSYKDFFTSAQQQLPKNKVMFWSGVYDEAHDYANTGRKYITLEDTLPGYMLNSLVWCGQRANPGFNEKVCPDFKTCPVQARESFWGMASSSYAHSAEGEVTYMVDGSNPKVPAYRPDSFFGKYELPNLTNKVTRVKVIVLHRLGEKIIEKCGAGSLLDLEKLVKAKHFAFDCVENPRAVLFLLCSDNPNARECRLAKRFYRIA
molecule,measurement,setting,value
"Nc1ncnc2c1ncn2[C@@H]1O[C@H](COP(=O)(O)OP(=O)(O)OCC2OC([n+]3cccc(C(=O)[O-])c3)C(O)C2O)[C@@H](O)[C@H]1OP(=O)(O)O (stereo in doubt) [NAADP^+, nicotinic acid adenine dinucleotide phosphate]",reduction in NAADP+ formation at pH 7.4 compared to pH 6.0,SM38; transglycosidation of NADP+ with nicotinic acid,3 fold
N=c1c2nc(Br)n3c2ncn1C1OC(COP(=O)(O)OP(=O)(O)OCC2OC3C(O)C2O)C(O)C1O (stereo not drawn) [8-Br-cADPR],release of intracellular calcium and influx of extracellular calcium,"bone marrow neutrophils [1]; WT cells preincubated with increasing concentrations, stimulated with fMLP",reduced in a dose-dependent fashion
same,[Ca2+]i of IL-8 stimulated neutrophils,"bone marrow neutrophils [1]; WT or CD38KO neutrophils, IL-8",absolutely no effect
same,cADPR-induced intracellular calcium release after pre-treatment,"bone marrow neutrophils [1]; permeabilized neutrophils, calcium-free buffer, stimulated with cADPR",No calcium release
same,block of accumulation of intracellular free calcium mediated by thapsigargin,bone marrow neutrophils [1]; thapsigargin-stimulated neutrophils,unable to block
same,ability of neutrophils to chemotax to IL-8,bone marrow neutrophils [2],absolutely no effect
O=C(O)CN(CCOCCOCCN(CC(=O)O)CC(=O)O)CC(=O)O [EGTA],ability of neutrophils to chemotax to IL-8,bone marrow neutrophils [2],absolutely no effect
"NNC(=O)c1ccncc1 [INH, isoniazid]",Sensivity to INH,SM38; SM38,INH-insensitive and no
same,Sensivity to INH,Mammalian cyclases,yes/no
"NC(=O)c1ccc[n+]([C@@H]2O[C@H](COP(=O)([O-])OP(=O)(O)OC[C@H]3O[C@@H](n4c(Br)nc5c(N)ncnc54)[C@H](O)[C@@H]3O)[C@@H](O)[C@H]2O)c1 [N(8-Br-A)D^+, nicotinamide 8-bromoadenine dinucleotide]",entry of extracellular calcium in fMLP-treated neutrophils,bone marrow neutrophils [1]; WT neutrophils pretreated,inhibited
same,chemotaxis of CD38KO neutrophils to either fMLP or IL-8,bone marrow neutrophils [2]; CD38KO neutrophils pre-treated,no effect
same,ability of neutrophils to chemotax to IL-8,bone marrow neutrophils [2],no effect
same,neutrophil chemotaxis to fMLP,"bone marrow neutrophils [2]; WT neutrophils pre-treated, fMLP in bottom chamber",severely reduced
NC(=O)c1ccc[n+]([C@@H]2O[C@H](COP(=O)([O-])OP(=O)(O)OC[C@H]3O[C@@H](n4cnc5c(N)ncnc54)[C@H](OP(=O)(O)O)[C@@H]3O)[C@@H](O)[C@H]2O)c1 [NADP^+],Km,SM38,13.7 ± 2.9 µM
same,Vmax (specific activity),SM38,39.2 ± 1.6 µmol/min/mg
same,kcat,SM38,19.34 ± 0.79 s⁻¹
same,catalytic efficiency (kcat/Km) relative to NAD+,SM38; NADP+ versus NAD+,8 fold
NC(=O)c1ccc[n+]([C@@H]2O[C@H](COP(=O)([O-])OP(=O)(O)OC[C@H]3O[C@@H](n4cnc5c(N)ncnc54)[C@H](O)[C@@H]3O)[C@@H](O)[C@H]2O)c1 [NAD^+],Km,SM38,38.5 ± 6.8 µM
same,Vmax (specific activity),SM38,13.2 µmol/min/mg and 13.2 ± 2.6 µmol/min/mg
same,kcat,SM38,6.51 ± 1.28 s⁻¹
same,Hydrolysis of NAD^+,SM38; SM38,yes
same,Methanolysis of NAD^+,SM38; SM38,yes
same,Hydrolysis of NAD^+,Aplysia cyclase,very low
same,Methanolysis of NAD^+,Aplysia cyclase,very low
same,specific activity of non-treated membrane microsomes,"[3]; 14C-labeled NAD+, ADPR production by HPLC",36 nmol/min/mg protein
same,Hydrolysis of NAD^+,Mammalian cyclases,yes
same,Methanolysis of NAD^+,Mammalian cyclases,yes
"NC(=O)c1ccc[n+]([C@@H]2O[C@H](COP(=O)([O-])OP(=O)(O)OC[C@H]3O[C@@H](n4cnc5c(=O)[nH]c(N)nc54)[C@H](O)[C@@H]3O)[C@@H](O)[C@H]2O)c1 [NGD^+, nicotinamide guanine dinucleotide]",Km,SM38,23.4 µM
same,Vmax (specific activity),SM38,4.8 µmol/min/mg and 4.8 ± 0.1 µmol/min/mg
same,kcat,SM38,2.37 ± 0.05 s⁻¹
same,cyclization/hydrolysis ratio,"SM38; NGD+ as substrate, cGDPR vs GDPR",approximately 6.0
same,cGDPR/GDPR ratio,[3]; membrane microsomes incubated with NGD+,12
NC(=O)c1ccc[n+]([C@@H]2O[C@H](COP(=O)([O-])OP(=O)(O)OC[C@H]3O[C@@H](n4cnc5c(N)ncnc54)[C@H](O)[C@@H]3O)[C@@H](O)[C@H]2F)c1 [araF-NAD^+],IC50,"SM38; SM38, read-out: Inhibition by araF-NAD^+ (IC50)",> 10 µM
same,IC50,Aplysia cyclase; read-out: Inhibition by araF-NAD^+ (IC50),> 10 µM
same,Inhibition by araF-NAD^+ (Ki),Mammalian cyclases,Ki nM range
N.N.N.N.N.N.N.N.N.N.N.N.N.N.[Cl-].[Cl-].[Cl-].[Cl-].[Cl-].[Cl-].[O-2].[O-2].[Ru+3].[Ru+3].[Ru+4] [ruthenium red],block of ryanodine-induced increase in [Ca2+],"bone marrow neutrophils [1]; permeabilized neutrophils, calcium-free buffer",blocked
cyclic GDP-ribose [cGDPR],Formation of cGDPR,SM38; SM38,yes
same,Formation of cGDPR,Aplysia cyclase,yes
same,Formation of cGDPR,Mammalian cyclases,yes
ryanodine,[Ca2+]i after stimulation,bone marrow neutrophils [1]; neutrophils permeabilized in calcium-free buffer,"small, but reproducible, increase"
B1,Transglycosidation,[4],yes
B2,Transglycosidation,[5],yes
